What was measured:
Format in all cases: in vivo
[1] = test system: transplanted Oryza sativa; experiment: Test Example 1: effect on crop, application before weed generation in submerged conditions; conditions: Application herbicide amount 320 g/ha; Seventeenth Table
Outline: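 Pre-emergence water-surface application under 4 cm flooding, same day as sowing, with rice transplanted at 2.5 leaf stage. Dose given as g/ha. Plants grown at 25° C. to 30° C. and rated three weeks later on a 0 (≤5%) to 5 (≥90%) herbicidal-ratio scale.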

[2] = test system: Cyperus difformis; experiment: Test Example 3: herbicidal effect by application to foliage (Wagner pot, water depth 0.1-0.5 cm); conditions: Nineteenth Table; application herbicide amount 320 g/ha
Outline: (§1)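 Post-emergence foliar application at a stated g/ha rate to plants grown 14 days from seed in alluvial soil, greenhouse 25–30 °C. Visual score after 3 weeks: 0 (≤5% effect) through 5 (≥90%).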

[3] = test system: Echinochloa crus-galli var. crus-galli; experiment: as above; conditions: Nineteenth Table; application herbicide amount 320 g/ha
Outline: as §1

[4] = test system: Leptochloa chinensis; experiment: as above; conditions: Nineteenth Table; application herbicide amount 320 g/ha
Outline: as §1

[5] = test system: Beta vulgaris ssp. vulgaris; experiment: Test Example 4: effect on crop by application to foliage (diluvial soil, plastic box); conditions: application to foliage, application herbicide amount 320 g/ha
Outline: (§2)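 Seeds sown in sterilized diluvial soil, covered ~1.5 cm, grown 14 days in greenhouse at 25° C. to 30° C. Emulsion formulation diluted in water to set rate (g/ha) and sprayed onto stems and leaves. Effect scored visually 3 weeks later on 0–5 scale (5 = ≥90% herbicidal ratio, 0 = ≤5%).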

[6] = test system: Brassica campestris L.; experiment: as above; conditions: application to foliage, application herbicide amount 320 g/ha
Outline: as §2

[7] = test system: Glycine max; experiment: as above; conditions: application to foliage, application herbicide amount 320 g/ha
Outline: as §2

[8] = test system: Zea mays; experiment: as above; conditions: application to foliage, application herbicide amount 320 g/ha
Outline: as §2

[9] = test system: directly sowed Oryza sativa; experiment: as above; conditions: application to foliage, application herbicide amount 320 g/ha
Outline: as §2

Structure (SMILES) | a: transplanted Oryza sativa (effect on crop grade) [1] | E (Cyperus difformis) herbicidal ratio grade [2] | H (Echinochloa crus-galli var. crus-galli) herbicidal ratio grade [3] | D (Leptochloa chinensis) herbicidal ratio grade [4] | f (Beta vulgaris ssp. vulgaris) effect on crop [5] | g (Brassica campestris L.) effect on crop [6] | c (Glycine max) effect on crop [7] | b (Zea mays) effect on crop [8] | d (directly sowed Oryza sativa) effect on crop [9]
Cc1nnc(NC(=O)c2ccc(C(F)(F)F)n3c(COCC(F)(F)F)nnc23)o1 [1-020] | 0 (Herbicidal ratio of 5% or less (almost no effect)) | 4 (Herbicidal ratio of 70% or more and less than 90%) | 5 (Herbicidal ratio of 90% or more (almost completely withered)) | 4 (Herbicidal ratio of 70% or more and less than 90%) | 5 (Herbicidal ratio of 90% or more (almost completely withered)) | 3 (Herbicidal ratio of 40% or more and less than 70%) | 1 (Herbicidal ratio of 5% or more and less than 20%) | 0 (Herbicidal ratio of 5% or less (almost no effect)) | 0 (Herbicidal ratio of 5% or less (almost no effect))
CCC(C)c1nnc2c(C(=O)Nc3nnc(C)o3)ccc(C(F)(F)F)n12 (stereo not drawn) [1-021] | 2 (Herbicidal ratio of 20% or more and less than 40%) | 5 (Herbicidal ratio of 90% or more (almost completely withered)) | 5 (Herbicidal ratio of 90% or more (almost completely withered)) | 5 (Herbicidal ratio of 90% or more (almost completely withered)) | 5 (Herbicidal ratio of 90% or more (almost completely withered)) | 3 (Herbicidal ratio of 40% or more and less than 70%) | 0 (Herbicidal ratio of 5% or less (almost no effect)) | 1 (Herbicidal ratio of 5% or more and less than 20%) | 3 (Herbicidal ratio of 40% or more and less than 70%)
Cc1cc(-c2nnc3c(C(=O)Nc4nnc(C)o4)ccc(C(F)(F)F)n23)no1 [1-022] | 0 (Herbicidal ratio of 5% or less (almost no effect)) | 4 (Herbicidal ratio of 70% or more and less than 90%) | 5 (Herbicidal ratio of 90% or more (almost completely withered)) | 5 (Herbicidal ratio of 90% or more (almost completely withered)) | 4 (Herbicidal ratio of 70% or more and less than 90%) | 2 (Herbicidal ratio of 20% or more and less than 40%) | 2 (Herbicidal ratio of 20% or more and less than 40%) | 0 (Herbicidal ratio of 5% or less (almost no effect)) | 3 (Herbicidal ratio of 40% or more and less than 70%)
CCCc1nnc2c(C(=O)Nc3nnc(C)o3)ccc(C(F)(F)F)n12 [1-024] | 0 (Herbicidal ratio of 5% or less (almost no effect)) | 4 (Herbicidal ratio of 70% or more and less than 90%) | 5 (Herbicidal ratio of 90% or more (almost completely withered)) | 4 (Herbicidal ratio of 70% or more and less than 90%) | 4 (Herbicidal ratio of 70% or more and less than 90%) | 4 (Herbicidal ratio of 70% or more and less than 90%) | 2 (Herbicidal ratio of 20% or more and less than 40%) | 0 (Herbicidal ratio of 5% or less (almost no effect)) | 4 (Herbicidal ratio of 70% or more and less than 90%)
Cc1nnc(NC(=O)c2ccc(C(F)(F)F)n3c(C4CCCC4)nnc23)o1 [1-026] | 2 (Herbicidal ratio of 20% or more and less than 40%) | 4 (Herbicidal ratio of 70% or more and less than 90%) | 5 (Herbicidal ratio of 90% or more (almost completely withered)) | 4 (Herbicidal ratio of 70% or more and less than 90%) | 5 (Herbicidal ratio of 90% or more (almost completely withered)) | 3 (Herbicidal ratio of 40% or more and less than 70%) | 0 (Herbicidal ratio of 5% or less (almost no effect)) | 0 (Herbicidal ratio of 5% or less (almost no effect)) | 3 (Herbicidal ratio of 40% or more and less than 70%)
CCOCc1nnc2c(C(=O)Nc3nnc(C)o3)ccc(C(F)(F)F)n12 [1-027] | 1 (Herbicidal ratio of 5% or more and less than 20%) | 5 (Herbicidal ratio of 90% or more (almost completely withered)) | 5 (Herbicidal ratio of 90% or more (almost completely withered)) | 5 (Herbicidal ratio of 90% or more (almost completely withered)) | 5 (Herbicidal ratio of 90% or more (almost completely withered)) | 4 (Herbicidal ratio of 70% or more and less than 90%) | 1 (Herbicidal ratio of 5% or more and less than 20%) | 0 (Herbicidal ratio of 5% or less (almost no effect)) | 5 (Herbicidal ratio of 90% or more (almost completely withered))
Cc1nnc(NC(=O)c2ccc(C(F)(F)F)n3c(C4=NOC(C)(C)C4)nnc23)o1 [1-029] | 2 (Herbicidal ratio of 20% or more and less than 40%) | 4 (Herbicidal ratio of 70% or more and less than 90%) | 4 (Herbicidal ratio of 70% or more and less than 90%) | 5 (Herbicidal ratio of 90% or more (almost completely withered)) | 5 (Herbicidal ratio of 90% or more (almost completely withered)) | 1 (Herbicidal ratio of 5% or more and less than 20%) | 1 (Herbicidal ratio of 5% or more and less than 20%) | 3 (Herbicidal ratio of 40% or more and less than 70%) | 3 (Herbicidal ratio of 40% or more and less than 70%)
CSCc1nnc2c(C(=O)Nc3nnc(C)o3)ccc(C(F)(F)F)n12 [1-030] | 0 (Herbicidal ratio of 5% or less (almost no effect)) | 5 (Herbicidal ratio of 90% or more (almost completely withered)) | 5 (Herbicidal ratio of 90% or more (almost completely withered)) | 5 (Herbicidal ratio of 90% or more (almost completely withered)) | 5 (Herbicidal ratio of 90% or more (almost completely withered)) | 4 (Herbicidal ratio of 70% or more and less than 90%) | 2 (Herbicidal ratio of 20% or more and less than 40%) | 3 (Herbicidal ratio of 40% or more and less than 70%) | 5 (Herbicidal ratio of 90% or more (almost completely withered))
Cc1nnc(NC(=O)c2ccc(C(F)(F)F)n3c(CSCC(F)(F)F)nnc23)o1 [1-031] | 0 (Herbicidal ratio of 5% or less (almost no effect)) | 3 (Herbicidal ratio of 40% or more and less than 70%) | 5 (Herbicidal ratio of 90% or more (almost completely withered)) | 4 (Herbicidal ratio of 70% or more and less than 90%) | 3 (Herbicidal ratio of 40% or more and less than 70%) | 3 (Herbicidal ratio of 40% or more and less than 70%) | 1 (Herbicidal ratio of 5% or more and less than 20%) | 0 (Herbicidal ratio of 5% or less (almost no effect)) | 3 (Herbicidal ratio of 40% or more and less than 70%)
CCSc1nnc2c(C(=O)Nc3nnc(C)o3)ccc(C(F)(F)F)n12 [1-032] | 2 (Herbicidal ratio of 20% or more and less than 40%) | 5 (Herbicidal ratio of 90% or more (almost completely withered)) | 5 (Herbicidal ratio of 90% or more (almost completely withered)) | 5 (Herbicidal ratio of 90% or more (almost completely withered)) | 5 (Herbicidal ratio of 90% or more (almost completely withered)) | 4 (Herbicidal ratio of 70% or more and less than 90%) | 0 (Herbicidal ratio of 5% or less (almost no effect)) | 0 (Herbicidal ratio of 5% or less (almost no effect)) | 4 (Herbicidal ratio of 70% or more and less than 90%)

Reference: patent publication US9708314B2, “Heterocyclic amide compound” (NISSAN CHEMICAL INDUSTRIES, LTD., priority 2013, dated 2017)
